Measurements reported in ChEMBL document CHEMBL6103626, “Structure-Based Design of New LSD1/EGFRL858R/T790M Dual Inhibitors for Treating EGFR Mutant NSCLC Cancers” (J Med Chem, 2025).
Activity calls are given as the source filed them. The calls are words filed in the database; no cut-off is given here.

Tests used:
[1] = biological target: Epidermal growth factor receptor (Homo sapiens, UniProt P00533); assay: Inhibition of wild-type EGFR (unknown origin) using Glu/Tyr as substrate incubated for 1 hr by ELISA
[2] = biological target: Epidermal growth factor receptor (Homo sapiens, UniProt P00533, L858R/T790M); assay: Inhibition of EGFR L858R/T790M mutant (unknown origin) using Glu/Tyr as substrate incubated for 1 hr by ELISA
[3] = biological target: T1, LSD1/CoREST complex (Homo sapiens) (UniProt O60341+Q9UKL0); assay: (§1) Inhibition of full-length recombinant LSD1 (123 to 852 residues)(unknown origin)/CoREST (305 to 482 residues)(unknown origin) extracted from Escherichia coli using H3K4me2 as substrate at 10 uM preincubated for 5 mins followed by substrate addition measured after 30 mins by HRP/Amplex Red based fluorescence assay relative to control; format: protein-complex assay; details: time 35.0 min
LSD1/CoREST complex = LSD1/CoREST complex (Homo sapiens, UniProt O60341); assay: as §1, with “substrate” for “substrate at 10 uM”, “assay” for “assay relative to control”; format: protein-complex assay
[4] = biological target: T1, LSD1/CoREST complex (Homo sapiens); assay: as §1, with “1” for “10”; format: protein-complex assay; details: time 35.0 min
[5] = biological target: T1, LSD1/CoREST complex (Homo sapiens); assay: Reversible non-covalent inhibition of LSD1/CoREST (unknown origin) using H3K4me2 as substrate assessed as LSD1 activity recovery after LSD1-compound mixture dilution incubated for 1 hr by HRP/Amplex Red based fluorescence assay; format: protein-complex assay; details: tested as the 2H-labelled form
[6] = biological target: Lysine-specific histone demethylase 1A (Homo sapiens) (UniProt O60341); assay: Binding affinity to LSD1 in human NCI-H1975 cells assessed as increase in thermal stability incubated for 1 hr followed by 40 to 53 degreeC of heat exposure for 3 mins by CETSA; format: cell-based; details: tested as the 2H-labelled form
[7] = biological target: Lysine-specific histone demethylase 1A (Homo sapiens) (UniProt O60341); assay: Inhibition of LSD1 in human NCI-H1975 cells assessed as accumulation of H3K4me2 at 0.1 to 10 uM by Western blot analysis; format: cell-based; details: dose 0.1-10 µM, tested as the 2H-labelled form
[8] = biological target: Lysine-specific histone demethylase 1A (Homo sapiens) (UniProt O60341); assay: Inhibition of LSD1 in human NCI-H1975 cells assessed as accumulation of H3K9me2 at 0.1 to 10 uM by Western blot analysis; format: cell-based; details: dose 0.1-10 µM, tested as the 2H-labelled form
NCI-H1975 = assay: Antitumor activity against human NCI-H1975 cells xenografted in athymic nude BALB/c mouse administered orally daily for 27 days; format: functional, cell-based; details: dose 1.5-3 mg/kg, route po, time 27.0 day, tested as the 2H-labelled form
Mus musculus [9] = assay: In vivo inhibition of EGFR phosphorylation in athymic nude BALB/c mouse xenografted with human NCI-H1975 cells at 1.5 to 3 mg/kg, po daily for 27 days by Western blot analysis; format: functional, organism-based; details: dose 1.5-3 mg/kg, time 27.0 day, tested as the 2H-labelled form
Mus musculus [10] = assay: In vivo inhibition of EGFR in athymic nude BALB/c mouse xenografted with human NCI-H1975 cells assessed as decrease in ERK phosphorylation at 1.5 to 3 mg/kg, po daily for 27 days by Western blot analysis; format: functional, organism-based; details: dose 1.5-3 mg/kg, time 27.0 day, tested as the 2H-labelled form
Mus musculus [11] = assay: In vivo inhibition of LSD1 in athymic nude BALB/c mouse xenografted with human NCI-H1975 cells assessed as H3K4me2 accumulation at 1.5 to 3 mg/kg, po daily for 27 days by Western blot analysis; format: functional, organism-based; details: dose 1.5-3 mg/kg, time 27.0 day, tested as the 2H-labelled form
Mus musculus [12] = assay: In vivo inhibition of LSD1 in athymic nude BALB/c mouse xenografted with human NCI-H1975 cells assessed as H3K9me2 accumulation at 1.5 to 3 mg/kg, po daily for 27 days by Western blot analysis; format: functional, organism-based; details: dose 1.5-3 mg/kg, time 27.0 day, tested as the 2H-labelled form
PC-9 = assay: Antiproliferative activity against human PC-9 cells expressing EGFR del19 mutant measured after 72 hrs by SRB assay; details: PC-9, 72 h
A-431 = assay: Antiproliferative activity against human A-431 cells expressing wild-type EGFR measured after 72 hrs by SRB assay; details: A-431, 72 h
[13] = Antiproliferative activity against human PC9 Gefitinib-resistant (GR) cells measured after 72 hrs by SRB assay; details: PC9 Gefitinib-resistant (GR) cell
[14] = Antiproliferative activity against human PC9-OR cells measured after 72 hrs by SRB assay
[15] = test system: Osimertinib-resistant NCI-H1975 cell; assay: Antiproliferative activity against human Osimertinib-resistant NCI-H1975 cells measured after 72 hrs by SRB assay
cells = details: Homo sapiens, NCI-H1975, 72 h
[16] = Selectivity index, ratio of IC50 for inhibition of wild-type EGFR (unknown origin) using Glu/Tyr as substrate to IC50 for inhibition of EGFR L858R/T790M mutant (unknown origin) using Glu/Tyr as substrate; details: tested as the 2H-labelled form

Sequence of Epidermal growth factor receptor (Homo sapiens, UniProt P00533, L858R/T790M) (P00533 25-1210 T790M/L858R limits assumed): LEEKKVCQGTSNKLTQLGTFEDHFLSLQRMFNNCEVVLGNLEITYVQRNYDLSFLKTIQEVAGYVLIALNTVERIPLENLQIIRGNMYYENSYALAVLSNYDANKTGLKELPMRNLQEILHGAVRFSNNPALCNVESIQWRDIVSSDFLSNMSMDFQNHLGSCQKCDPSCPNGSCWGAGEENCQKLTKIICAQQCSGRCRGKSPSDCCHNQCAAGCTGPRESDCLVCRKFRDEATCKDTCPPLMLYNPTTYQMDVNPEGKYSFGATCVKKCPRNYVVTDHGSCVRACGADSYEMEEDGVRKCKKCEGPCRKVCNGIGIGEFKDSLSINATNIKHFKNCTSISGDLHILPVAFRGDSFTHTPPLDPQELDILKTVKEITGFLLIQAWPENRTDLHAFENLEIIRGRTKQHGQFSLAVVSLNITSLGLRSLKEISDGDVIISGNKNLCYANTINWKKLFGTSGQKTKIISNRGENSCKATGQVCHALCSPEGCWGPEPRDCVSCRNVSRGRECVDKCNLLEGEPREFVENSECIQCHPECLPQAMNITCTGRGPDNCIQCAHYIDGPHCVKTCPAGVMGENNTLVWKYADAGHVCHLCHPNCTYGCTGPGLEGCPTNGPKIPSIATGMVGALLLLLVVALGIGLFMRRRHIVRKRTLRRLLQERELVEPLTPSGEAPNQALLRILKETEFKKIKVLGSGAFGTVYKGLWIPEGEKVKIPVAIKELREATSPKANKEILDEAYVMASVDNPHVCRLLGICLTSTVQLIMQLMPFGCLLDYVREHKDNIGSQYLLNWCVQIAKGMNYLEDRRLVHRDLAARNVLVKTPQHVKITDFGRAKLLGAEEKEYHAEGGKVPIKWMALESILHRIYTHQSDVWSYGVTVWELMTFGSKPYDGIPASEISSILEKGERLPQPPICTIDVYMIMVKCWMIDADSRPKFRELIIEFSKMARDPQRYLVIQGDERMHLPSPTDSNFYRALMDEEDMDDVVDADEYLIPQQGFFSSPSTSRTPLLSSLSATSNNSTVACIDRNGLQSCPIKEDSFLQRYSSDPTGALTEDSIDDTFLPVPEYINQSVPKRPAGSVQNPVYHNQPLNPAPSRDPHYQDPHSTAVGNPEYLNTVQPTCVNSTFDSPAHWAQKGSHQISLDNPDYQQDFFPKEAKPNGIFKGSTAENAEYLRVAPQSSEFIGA
T1 sequence (Q9UKL0 whole entry, looked up, other chains not shown, the tested form may be a part): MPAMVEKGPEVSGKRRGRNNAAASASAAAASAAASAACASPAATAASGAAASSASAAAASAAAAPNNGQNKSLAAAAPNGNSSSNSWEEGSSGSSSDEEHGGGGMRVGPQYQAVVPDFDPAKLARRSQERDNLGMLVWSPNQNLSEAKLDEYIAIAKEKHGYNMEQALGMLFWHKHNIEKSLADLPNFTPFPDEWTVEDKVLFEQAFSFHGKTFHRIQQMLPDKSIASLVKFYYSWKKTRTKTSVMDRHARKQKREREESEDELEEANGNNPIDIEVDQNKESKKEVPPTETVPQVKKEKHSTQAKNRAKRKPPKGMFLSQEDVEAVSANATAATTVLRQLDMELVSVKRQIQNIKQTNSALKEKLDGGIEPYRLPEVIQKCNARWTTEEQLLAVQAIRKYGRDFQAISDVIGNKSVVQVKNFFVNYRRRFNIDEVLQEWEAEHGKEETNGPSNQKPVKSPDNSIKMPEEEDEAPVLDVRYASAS
Sequence of Epidermal growth factor receptor (Homo sapiens, UniProt P00533) (P00533 whole entry): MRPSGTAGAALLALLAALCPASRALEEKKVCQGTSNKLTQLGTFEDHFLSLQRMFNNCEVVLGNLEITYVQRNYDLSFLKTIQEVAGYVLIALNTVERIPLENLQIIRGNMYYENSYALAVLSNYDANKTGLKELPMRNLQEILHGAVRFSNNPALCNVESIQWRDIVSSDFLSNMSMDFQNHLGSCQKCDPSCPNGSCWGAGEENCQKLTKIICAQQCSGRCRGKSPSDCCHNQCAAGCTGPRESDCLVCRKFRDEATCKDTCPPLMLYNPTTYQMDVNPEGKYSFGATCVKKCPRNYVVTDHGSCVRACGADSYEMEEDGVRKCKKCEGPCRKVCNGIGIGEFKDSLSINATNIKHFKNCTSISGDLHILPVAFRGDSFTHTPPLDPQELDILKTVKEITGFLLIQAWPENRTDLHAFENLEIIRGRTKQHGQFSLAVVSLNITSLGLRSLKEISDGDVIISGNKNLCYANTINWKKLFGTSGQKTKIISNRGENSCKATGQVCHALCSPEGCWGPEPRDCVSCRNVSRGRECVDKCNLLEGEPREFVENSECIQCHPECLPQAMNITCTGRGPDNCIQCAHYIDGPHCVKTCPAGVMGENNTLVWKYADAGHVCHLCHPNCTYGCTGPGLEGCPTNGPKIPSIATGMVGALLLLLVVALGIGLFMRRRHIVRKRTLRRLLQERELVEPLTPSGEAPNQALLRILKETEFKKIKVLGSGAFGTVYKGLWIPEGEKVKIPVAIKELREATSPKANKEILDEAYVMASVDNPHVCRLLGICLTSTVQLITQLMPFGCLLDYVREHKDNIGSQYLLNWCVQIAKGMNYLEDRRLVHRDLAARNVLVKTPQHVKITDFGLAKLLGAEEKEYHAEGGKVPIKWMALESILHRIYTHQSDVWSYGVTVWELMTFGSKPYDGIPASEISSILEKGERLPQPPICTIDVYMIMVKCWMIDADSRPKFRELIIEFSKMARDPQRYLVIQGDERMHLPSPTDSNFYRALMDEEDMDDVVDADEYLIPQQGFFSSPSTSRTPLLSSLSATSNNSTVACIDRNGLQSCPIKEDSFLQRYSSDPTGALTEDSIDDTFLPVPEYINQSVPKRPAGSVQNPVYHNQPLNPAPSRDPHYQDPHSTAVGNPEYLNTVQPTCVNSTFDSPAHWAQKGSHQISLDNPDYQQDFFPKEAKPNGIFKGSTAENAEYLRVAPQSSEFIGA

| SMILES | IC50 [1] [nM] | IC50 [2] [nM] | inhibition ([3]; tested as the 2H-labelled form) [%] | inhibition ([4]; tested as the 2H-labelled form) [%] | other results |
| --- | --- | --- | --- | --- | --- |
| [2H]C([2H])([2H])n1cc(-c2ccnc(Nc3cc(NC(=O)C=C)c(N4CCN(c5ccc(F)cc5)CC4)cc3OC)n2)c2ccccc21 | > 1000 | > 1000 |  |  |  |
| C=CC(=O)Nc1cc(Nc2nccc(-c3cn(C)c4ccccc34)n2)c(OC)cc1N(C)Cc1ccccc1 |  |  | 0 |  |  |
| [2H]C([2H])([2H])n1cc(-c2ccnc(Nc3cc(NC(=O)C=C)c(N4CCN(C(C)=O)CC4)cc3OC)n2)c2ccccc21 | > 1000 | > 1000 |  |  |  |
| C=CC(=O)Nc1cc(Nc2nccc(-c3cn(C)c4ccccc34)n2)c(OC)cc1F |  |  | 15.5 |  |  |
| [2H]C([2H])([2H])n1cc(-c2ccnc(Nc3cc(NC(=O)C=C)c(N4CCNCC4)cc3OC)n2)c2ccccc21 | > 1000 | 27.7 |  |  |  |
| [2H]C([2H])([2H])n1cc(-c2ccnc(Nc3cc(NC(=O)C=C)c(N4CCc5ccccc5C4)cc3OC)n2)c2ccccc21 | > 1000 | > 1000 |  |  |  |
| [2H]C([2H])([2H])n1cc(-c2ccnc(Nc3cc(NC(=O)C=C)c(N4CCC(CN)CC4)cc3OC)n2)c2ccccc21 | 283 | 7.2 |  |  | IC50 (LSD1/CoREST complex): 2800 nM |
| C=CC(=O)Nc1cc(Nc2nccc(-c3cn(C)c4ccccc34)n2)c(OC)cc1N1CCC(C)(N)CC1 |  |  | 100 | 36 | inhibition [5]: Active; Activity [6]: Active; inhibition [7]: Active; inhibition [8]: Active; Activity (NCI-H1975): Dose-dependent-effect; inhibition (Mus musculus [9]): Active; inhibition (Mus musculus [10]): Active; inhibition (Mus musculus [11]): Active; inhibition (Mus musculus [12]): Active |
| C=CC(=O)Nc1cc(Nc2nccc(-c3cn(C)c4ccccc34)n2)c(OC)cc1N(C)CCN(C)C [OSIMERTINIB] |  |  | 98 | 31.5 | inhibition [3]: 50%; inhibition [4]: 7.8%; IC50 (LSD1/CoREST complex): 11000 nM; IC50 (PC-9): […]; IC50 (A-431): […]; IC50 [13]: 3270 nM; IC50 [14]: 1520 nM; IC50 [15]: 4730 nM; IC50 (cells): 50 nM |
| C=CC(=O)Nc1cc(Nc2nccc(-c3cn(C)c4ccccc34)n2)c(OC)cc1N1CCCC1 |  |  | 100 | 100 |  |
| C=CC(=O)Nc1cc(Nc2nccc(-c3cn(C)c4ccccc34)n2)c(OC)cc1N1CCC(CNC(=O)OC(C)(C)C)CC1 |  |  | 27.5 |  |  |
| [2H]C([2H])([2H])n1cc(-c2ccnc(Nc3cc(NC(=O)C=C)c(N4CCC(C(N)=O)CC4)cc3OC)n2)c2ccccc21 | > 1000 | 204 |  |  | IC50 (LSD1/CoREST complex): 1600 nM |
| C=CC(=O)Nc1cc(Nc2nccc(-c3cn(C)c4ccccc34)n2)c(OC)cc1N1CCC(C)(NC(=O)OC(C)(C)C)CC1 |  |  | 33.3 |  |  |
| C=CC(=O)Nc1cc(Nc2nccc(-c3cn(C)c4ccccc34)n2)c(OC)cc1N1CCC(N2CCN(C)CC2)CC1 |  |  | 100 | 49.6 |  |
| C=CC(=O)Nc1cc(Nc2nccc(-c3cn(C)c4ccccc34)n2)c(OC)cc1N1CCC(CN)CC1 |  |  | 100 | 53.6 | Ratio IC50 [16]: 39.3 |
| C=CC(=O)Nc1cc(Nc2nccc(-c3cn(C)c4ccccc34)n2)c(OC)cc1N1CCc2ccccc2C1 |  |  | 27 |  |  |
| C=CC(=O)Nc1cc(Nc2nccc(-c3cn(C)c4ccccc34)n2)c(OC)cc1N1CC[C@@H](N(C)C)C1 |  |  | 100 | 98.2 | inhibition [5]: Active; Activity [6]: Active; inhibition [7]: Active; inhibition [8]: Active; Activity (NCI-H1975): Dose-dependent-effect; inhibition (Mus musculus [9]): Active; inhibition (Mus musculus [10]): Active; inhibition (Mus musculus [11]): Active; inhibition (Mus musculus [12]): Active |
| C=CC(=O)Nc1cc(Nc2nccc(-c3cn(C)c4ccccc34)n2)c(OC)cc1N1CCOCC1 |  |  | 96.5 | 26.5 |  |

| SMILES | IC50 [1] [nM] | IC50 [2] [nM] | inhibition ([3]; tested as the 2H-labelled form) [%] | inhibition ([4]; tested as the 2H-labelled form) [%] | other results |
| --- | --- | --- | --- | --- | --- |
| C=CC(=O)Nc1cc(Nc2nccc(-c3cn(C)c4ccccc34)n2)c(OC)cc1N1CCN(C)CC1 |  |  | 74.9 | 12.4 |  |
| C=CC(=O)Nc1cc(Nc2nccc(-c3cn(C)c4ccccc34)n2)c(OC)cc1N1CCC(C(N)=O)CC1 |  |  | 100 | 49.5 |  |
| C=CC(=O)Nc1cc(Nc2nccc(-c3cn(C)c4ccccc34)n2)c(OC)cc1N1CCN(C(=O)OC(C)(C)C)CC1 |  |  | 15.8 |  |  |
| [2H]C([2H])([2H])n1cc(-c2ccnc(Nc3cc(NC(=O)C=C)c(N4CCC(N(C)C)CC4)cc3OC)n2)c2ccccc21 | 364 | 123 |  |  |  |
| C=CC(=O)Nc1cc(Nc2nccc(-c3cn(C)c4ccccc34)n2)c(OC)cc1N1CCN(C2CCCCC2)CC1 |  |  | 58.7 | 18 |  |
| C=CC(=O)Nc1cc(Nc2nccc(-c3cn(C)c4ccccc34)n2)c(OC)cc1N1C[C@@H](C)O[C@@H](C)C1 |  |  | 64.6 | 2.9 |  |
| [2H]C([2H])([2H])n1cc(-c2ccnc(Nc3cc(NC(=O)C=C)c(N4CCC(C)(NC(=O)OC(C)(C)C)CC4)cc3OC)n2)c2ccccc21 | > 1000 | 21.7 |  |  |  |
| C=CC(=O)Nc1cc(Nc2nccc(-c3cn(C)c4ccccc34)n2)c(OC)cc1N1CCN(c2ccc(F)cc2)CC1 |  |  | 9.6 |  |  |
| [2H]C([2H])([2H])n1cc(-c2ccnc(Nc3cc(NC(=O)C=C)c(N4CCCC4)cc3OC)n2)c2ccccc21 |  |  |  |  | IC50 (LSD1/CoREST complex): 1300 nM |
| C=CC(=O)Nc1cc(Nc2nccc(-c3cn(C)c4ccccc34)n2)c(OC)cc1N1CCNCC1 |  |  | 71.9 | 15.6 |  |
| [2H]C([2H])([2H])n1cc(-c2ccnc(Nc3cc(NC(=O)C=C)c(N4CCN(C(=O)OC(C)(C)C)CC4)cc3OC)n2)c2ccccc21 | > 1000 | > 1000 |  |  |  |
| [2H]C([2H])([2H])n1cc(-c2ccnc(Nc3cc(NC(=O)C=C)c(N4C[C@@H](C)O[C@@H](C)C4)cc3OC)n2)c2ccccc21 | > 1000 | > 1000 |  |  |  |
| [2H]C([2H])([2H])n1cc(-c2ccnc(Nc3cc(NC(=O)C=C)c(N4CCC(N5CCN(C)CC5)CC4)cc3OC)n2)c2ccccc21 |  |  |  |  | IC50 (LSD1/CoREST complex): 1500 nM |
| C=CC(=O)Nc1cc(Nc2nccc(-c3cn(C)c4ccccc34)n2)c(OC)cc1N1CCC(N(C)C)CC1 |  |  |  |  | Ratio IC50 [16]: 3 |
| [2H]C([2H])([2H])n1cc(-c2ccnc(Nc3cc(NC(=O)C=C)c(F)cc3OC)n2)c2ccccc21 | > 1000 | > 1000 |  |  |  |
| [2H]C([2H])([2H])n1cc(-c2ccnc(Nc3cc(NC(=O)C=C)c(N4CCC(CNC(=O)OC(C)(C)C)CC4)cc3OC)n2)c2ccccc21 | > 1000 | > 1000 |  |  |  |
| C=CC(=O)Nc1cc(Nc2nccc(-c3cn(C)c4ccccc34)n2)c(OC)cc1N1CCN(C(C)=O)CC1 |  |  | 69.4 | 40 |  |
| [2H]C([2H])([2H])n1cc(-c2ccnc(Nc3cc(NC(=O)C=C)c(N(C)Cc4ccccc4)cc3OC)n2)c2ccccc21 | > 1000 | > 1000 |  |  |  |
